Structures are written as SMILES. Some results are limits rather than exact numbers.

Data set [1] has as its target Sodium-dependent dopamine transporter (Homo sapiens, UniProt Q01959). In words: GPCRScan assay: inhibition of DAT. On the set-up: radioligand conc. used [nm] 3.6 – 16.0, parental cells stable HEK.
Data set [2] has as its target 5-hydroxytryptamine receptor 1D (Homo sapiens) (UniProt P28221). The following applies: Compound concentration 10.0 uM.
The target in data set [3] is D(3) dopamine receptor (Homo sapiens) (UniProt P35462). The following applies: Compound concentration 10.0 uM.
The target of data set [4] is Monocarboxylate transporter 1/4 (Homo sapiens, UniProt P53985+O15427). In words: Lactate efflux inhibition assay (MiaPaCa2 ). It counts as protein assay.
Data set [5] addresses 5-hydroxytryptamine receptor 1B (Homo sapiens) (UniProt P28222). As to conditions: Compound concentration 10.0 uM.
Data set [6] has as its target GABA-A receptor; anion channel (Rattus norvegicus) (UniProt O09028+P15431+P18506+P18508+P19969+P20236+P23574+P23576+P28471+P28473+P30191+P62813+P63079+P63138+Q91ZM7+Q9ES14). As to conditions: Compound concentration 10.0 uM.
The target in data set [7] is Vasopressin V1a receptor (Homo sapiens) (UniProt P37288). The data set is described as follows: V1 a (h) Eurofins-Cerep binding assay. On the set-up: ligand concentration 0.3 nM. The following applies: filed as agonist, Compound concentration 10.0 uM.
Data set [8] deals with Nociceptin receptor (Homo sapiens) (UniProt P41146). In words: NOP (ORL1) (h) Eurofins-Cerep binding assay. On the set-up: ligand concentration 0.06 nM. The following applies: filed as agonist, Compound concentration 10.0 uM.
Chain of Nociceptin receptor (Homo sapiens) (P41146 whole entry): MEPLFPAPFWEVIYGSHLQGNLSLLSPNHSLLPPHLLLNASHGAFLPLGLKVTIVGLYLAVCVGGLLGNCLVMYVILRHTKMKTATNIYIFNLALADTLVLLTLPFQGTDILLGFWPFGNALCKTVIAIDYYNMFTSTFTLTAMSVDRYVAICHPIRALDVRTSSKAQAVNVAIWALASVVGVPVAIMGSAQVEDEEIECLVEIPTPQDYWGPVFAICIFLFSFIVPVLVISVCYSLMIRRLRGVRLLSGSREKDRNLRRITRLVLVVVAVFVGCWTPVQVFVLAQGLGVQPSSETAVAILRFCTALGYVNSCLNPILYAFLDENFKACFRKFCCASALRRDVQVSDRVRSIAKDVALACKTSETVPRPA
Data set [9] concerns the target T1, Muscarinic acetylcholine receptor M5 (Homo sapiens) (UniProt P08912).
T1 sequence (whole entry): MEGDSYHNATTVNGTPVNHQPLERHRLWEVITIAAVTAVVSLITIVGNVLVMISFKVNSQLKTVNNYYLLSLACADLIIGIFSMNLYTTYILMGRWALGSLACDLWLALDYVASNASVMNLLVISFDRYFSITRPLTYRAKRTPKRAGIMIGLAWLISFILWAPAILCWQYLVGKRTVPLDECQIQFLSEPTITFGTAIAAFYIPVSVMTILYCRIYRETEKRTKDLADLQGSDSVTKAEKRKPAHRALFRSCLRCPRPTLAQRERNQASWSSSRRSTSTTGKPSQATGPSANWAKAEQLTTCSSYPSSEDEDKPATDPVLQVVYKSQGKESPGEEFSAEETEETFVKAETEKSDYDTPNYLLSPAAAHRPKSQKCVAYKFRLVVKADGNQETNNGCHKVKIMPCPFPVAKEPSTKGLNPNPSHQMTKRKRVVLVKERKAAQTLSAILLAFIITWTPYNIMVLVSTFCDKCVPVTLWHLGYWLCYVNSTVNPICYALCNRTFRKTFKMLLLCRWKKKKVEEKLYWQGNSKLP
In words: M5 (h) Eurofins-Cerep binding assay. As to conditions: filed as antagonist, Compound concentration 10.0 uM. On the set-up: ligand concentration 0.3 nM.

The target in data set [10] is T2, Muscarinic acetylcholine receptor M1 (Homo sapiens) (UniProt P11229).
T2 sequence (whole entry): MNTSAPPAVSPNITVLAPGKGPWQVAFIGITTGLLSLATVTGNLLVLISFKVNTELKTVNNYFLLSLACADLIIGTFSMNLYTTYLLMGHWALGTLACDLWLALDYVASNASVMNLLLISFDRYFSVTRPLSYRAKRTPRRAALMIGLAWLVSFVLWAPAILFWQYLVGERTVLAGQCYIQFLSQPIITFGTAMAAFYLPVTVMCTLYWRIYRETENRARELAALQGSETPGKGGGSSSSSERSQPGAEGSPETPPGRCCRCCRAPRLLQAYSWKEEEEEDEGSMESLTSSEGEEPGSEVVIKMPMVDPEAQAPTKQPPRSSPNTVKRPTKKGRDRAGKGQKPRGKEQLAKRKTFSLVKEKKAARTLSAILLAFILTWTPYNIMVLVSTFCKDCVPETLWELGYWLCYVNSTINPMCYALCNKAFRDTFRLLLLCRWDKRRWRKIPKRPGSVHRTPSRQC
The data set is described as follows: M1 (h) Eurofins-Cerep binding assay. On the set-up: ligand concentration 2 nM. The following applies: filed as antagonist, Compound concentration 10.0 uM.

For data set [11], the target named is Endothelin-1 receptor (Homo sapiens) (UniProt P25101). The data set is described as follows: ETA (h) Eurofins-Cerep binding assay. On the set-up: ligand concentration 0.03 nM. As to conditions: filed as agonist, Compound concentration 10.0 uM.
Chain of Endothelin-1 receptor (Homo sapiens) (P25101 whole entry): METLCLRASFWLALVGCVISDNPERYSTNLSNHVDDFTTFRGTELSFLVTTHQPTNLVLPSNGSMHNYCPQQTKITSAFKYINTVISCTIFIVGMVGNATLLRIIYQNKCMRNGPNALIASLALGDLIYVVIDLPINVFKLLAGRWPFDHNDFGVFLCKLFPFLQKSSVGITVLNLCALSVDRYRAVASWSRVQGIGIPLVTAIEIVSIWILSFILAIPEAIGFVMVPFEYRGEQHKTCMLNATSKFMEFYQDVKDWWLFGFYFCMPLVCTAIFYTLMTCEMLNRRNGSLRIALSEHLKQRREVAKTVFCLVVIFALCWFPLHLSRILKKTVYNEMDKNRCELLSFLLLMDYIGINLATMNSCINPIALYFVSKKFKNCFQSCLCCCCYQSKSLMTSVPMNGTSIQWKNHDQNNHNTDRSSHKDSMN
Data set [12] deals with L-type Ca2+ channel (diltiazem site, benzothiazepines) (Rattus norvegicus, UniProt P22002+P27732+Q02485). The data set is described as follows: Ca2+ channel (L, diltiazem site) (benzothiazepines) Eurofins-Cerep binding assay. The following applies: rat cerebral cortex, probe [3H]diltiazem, compound concentration 10 uM, read-out: % Inhibition of Control Specific Binding (Mean n=2). On the set-up: incubation time 120 min, incubation temperature RT, ligand concentration 15 nM. It counts as protein assay.

The target of data set [13] is Neuropeptide Y receptor type 1 (Homo sapiens) (UniProt P25929). The data set is described as follows: Y1 (h) Eurofins-Cerep binding assay. On the set-up: ligand concentration 0.025 nM. The following applies: filed as agonist, Compound concentration 10.0 uM.
Chain of Neuropeptide Y receptor type 1 (Homo sapiens) (P25929 whole entry): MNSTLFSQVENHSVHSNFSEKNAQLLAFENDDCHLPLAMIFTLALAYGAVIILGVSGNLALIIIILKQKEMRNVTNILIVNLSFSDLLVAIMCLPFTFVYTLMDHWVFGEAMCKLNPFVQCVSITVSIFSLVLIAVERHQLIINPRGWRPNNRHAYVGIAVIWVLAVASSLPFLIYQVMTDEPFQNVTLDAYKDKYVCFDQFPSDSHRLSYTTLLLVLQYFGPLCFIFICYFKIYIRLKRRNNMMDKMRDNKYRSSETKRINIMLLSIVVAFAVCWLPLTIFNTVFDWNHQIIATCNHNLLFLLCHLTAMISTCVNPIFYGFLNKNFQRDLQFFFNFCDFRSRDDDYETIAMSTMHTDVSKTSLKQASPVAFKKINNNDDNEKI
In data set [14] the target is Sodium-dependent noradrenaline transporter (Homo sapiens) (UniProt P23975). In words: norepinephrine transporter (h) Eurofins-Cerep binding assay. The following applies: filed as antagonist, Compound concentration 10.0 uM. On the set-up: ligand concentration 1 nM.
Chain of Sodium-dependent noradrenaline transporter (Homo sapiens) (P23975 whole entry): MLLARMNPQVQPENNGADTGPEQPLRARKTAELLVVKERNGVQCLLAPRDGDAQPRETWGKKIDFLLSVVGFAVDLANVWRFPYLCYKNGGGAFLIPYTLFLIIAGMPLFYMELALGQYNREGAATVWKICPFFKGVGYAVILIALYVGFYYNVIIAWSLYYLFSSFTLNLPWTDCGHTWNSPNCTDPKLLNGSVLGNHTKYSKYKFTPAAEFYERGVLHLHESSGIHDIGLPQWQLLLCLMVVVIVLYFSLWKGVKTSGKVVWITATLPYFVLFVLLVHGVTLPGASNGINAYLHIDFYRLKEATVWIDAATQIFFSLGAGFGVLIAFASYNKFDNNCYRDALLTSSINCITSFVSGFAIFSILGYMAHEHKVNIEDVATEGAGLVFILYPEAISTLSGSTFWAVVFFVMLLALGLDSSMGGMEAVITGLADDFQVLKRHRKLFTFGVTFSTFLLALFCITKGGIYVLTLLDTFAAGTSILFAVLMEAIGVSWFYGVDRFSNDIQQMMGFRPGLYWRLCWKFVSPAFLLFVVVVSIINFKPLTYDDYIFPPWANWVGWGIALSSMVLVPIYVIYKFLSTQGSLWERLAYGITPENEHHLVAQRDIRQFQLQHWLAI
Data set [15] concerns the target Prostaglandin E2 receptor EP4 subtype (Homo sapiens) (UniProt P35408). The data set is described as follows: EP4 (h) Eurofins-Cerep binding assay. On the set-up: ligand concentration 0.5 nM. As to conditions: filed as agonist, Compound concentration 10.0 uM.
In data set [16] the target is Adenosine receptor A2a (Homo sapiens) (UniProt P29274). In words: A2A (h) Eurofins-Cerep binding assay. On the set-up: ligand concentration 6 nM. As to conditions: filed as agonist, Compound concentration 10.0 uM.
Data set [17] deals with Histamine H2 receptor (Homo sapiens) (UniProt P25021). The following applies: Compound concentration 10.0 uM.
Chain of Histamine H2 receptor (Homo sapiens) (P25021 whole entry): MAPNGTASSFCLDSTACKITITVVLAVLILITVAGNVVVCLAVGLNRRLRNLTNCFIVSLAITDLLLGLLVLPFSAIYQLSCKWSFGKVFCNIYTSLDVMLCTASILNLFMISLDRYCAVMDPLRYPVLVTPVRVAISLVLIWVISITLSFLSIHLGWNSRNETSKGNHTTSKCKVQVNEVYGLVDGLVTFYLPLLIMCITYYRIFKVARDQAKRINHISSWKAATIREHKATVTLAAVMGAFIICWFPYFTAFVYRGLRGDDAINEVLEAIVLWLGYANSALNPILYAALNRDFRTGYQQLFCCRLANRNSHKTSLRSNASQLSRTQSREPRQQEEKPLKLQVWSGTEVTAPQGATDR
For data set [18], the target named is Substance-K receptor (Homo sapiens) (UniProt P21452). The data set is described as follows: NK2 (h) Eurofins-Cerep binding assay. As to conditions: filed as agonist, Compound concentration 10.0 uM. On the set-up: ligand concentration 0.1 nM.
Chain of Substance-K receptor (Homo sapiens) (P21452 whole entry): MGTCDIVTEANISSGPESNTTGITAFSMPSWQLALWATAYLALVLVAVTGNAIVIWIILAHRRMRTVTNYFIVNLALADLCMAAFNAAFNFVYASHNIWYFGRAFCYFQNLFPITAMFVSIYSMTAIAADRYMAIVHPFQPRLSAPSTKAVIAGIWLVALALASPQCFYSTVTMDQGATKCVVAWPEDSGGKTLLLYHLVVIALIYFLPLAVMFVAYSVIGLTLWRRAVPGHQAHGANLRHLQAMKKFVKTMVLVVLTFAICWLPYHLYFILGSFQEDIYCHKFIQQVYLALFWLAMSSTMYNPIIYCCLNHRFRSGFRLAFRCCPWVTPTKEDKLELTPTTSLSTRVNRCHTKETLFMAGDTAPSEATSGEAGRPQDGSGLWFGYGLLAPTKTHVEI
In another data set the target is Na+ channel (site 2) (Rattus norvegicus, UniProt F1LQQ7+O08562+O88420+O88457+P04774+P04775+P08104+P15389+P15390+Q62968). In words: Na+ channel (site 2) Eurofins-Cerep binding assay. The following applies: rat cerebral cortex, probe [3H]batrachotoxin, compound concentration 10 uM, read-out: % Inhibition of Control Specific Binding (Mean n=2). On the set-up: incubation time 60 min, incubation temperature 37°C, ligand concentration 10 nM. It counts as protein assay.

Data set [19] addresses D(1A) dopamine receptor (Homo sapiens) (UniProt P21728). In words: D1 (h) Eurofins-Cerep binding assay. On the set-up: ligand concentration 0.3 nM. As to conditions: filed as antagonist, Compound concentration 10.0 uM.
Data set [20] addresses Delta-type opioid receptor (Homo sapiens, UniProt P41143). In words: delta (DOP) (h) Eurofins-Cerep binding assay. On the set-up: ligand concentration 0.5 nM. As to conditions: filed as agonist, Compound concentration 10.0 uM.
Data set [21] addresses T3, Muscarinic acetylcholine receptor M2 (Homo sapiens) (UniProt P08172).
T3 sequence (whole entry): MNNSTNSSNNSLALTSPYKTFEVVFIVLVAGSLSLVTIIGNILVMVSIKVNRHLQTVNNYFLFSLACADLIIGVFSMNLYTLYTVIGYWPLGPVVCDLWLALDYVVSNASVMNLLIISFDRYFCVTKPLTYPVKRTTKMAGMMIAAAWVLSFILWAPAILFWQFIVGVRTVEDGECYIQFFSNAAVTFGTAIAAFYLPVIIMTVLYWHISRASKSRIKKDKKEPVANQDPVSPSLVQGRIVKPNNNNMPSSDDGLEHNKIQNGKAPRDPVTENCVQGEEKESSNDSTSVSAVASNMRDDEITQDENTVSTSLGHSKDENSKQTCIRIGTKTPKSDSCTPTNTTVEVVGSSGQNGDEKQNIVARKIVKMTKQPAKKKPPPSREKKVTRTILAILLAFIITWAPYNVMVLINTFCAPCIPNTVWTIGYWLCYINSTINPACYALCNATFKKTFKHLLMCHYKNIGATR
In words: M2 (h) Eurofins-Cerep binding assay. On the set-up: ligand concentration 2 nM. As to conditions: filed as antagonist, Compound concentration 10.0 uM.

Chain of Sodium-dependent dopamine transporter (Q01959 whole entry): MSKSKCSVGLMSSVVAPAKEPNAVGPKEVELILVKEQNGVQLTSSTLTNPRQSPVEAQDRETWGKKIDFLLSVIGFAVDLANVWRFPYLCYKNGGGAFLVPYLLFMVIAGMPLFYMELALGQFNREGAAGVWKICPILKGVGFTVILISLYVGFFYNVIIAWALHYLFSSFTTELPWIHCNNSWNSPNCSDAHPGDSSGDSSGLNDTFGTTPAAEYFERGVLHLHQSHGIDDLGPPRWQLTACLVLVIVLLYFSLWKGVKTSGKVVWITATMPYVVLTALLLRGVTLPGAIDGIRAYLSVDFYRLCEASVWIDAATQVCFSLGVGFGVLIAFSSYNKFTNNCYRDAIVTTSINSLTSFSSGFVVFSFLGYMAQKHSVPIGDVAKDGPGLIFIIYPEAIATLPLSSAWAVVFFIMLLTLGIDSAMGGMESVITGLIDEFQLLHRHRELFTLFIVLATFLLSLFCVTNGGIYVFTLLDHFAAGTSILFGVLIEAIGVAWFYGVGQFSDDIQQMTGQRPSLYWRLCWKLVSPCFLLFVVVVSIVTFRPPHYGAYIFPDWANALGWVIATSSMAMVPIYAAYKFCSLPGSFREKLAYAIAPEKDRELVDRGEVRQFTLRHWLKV
Chain of Prostaglandin E2 receptor EP4 subtype (Homo sapiens) (P35408 whole entry): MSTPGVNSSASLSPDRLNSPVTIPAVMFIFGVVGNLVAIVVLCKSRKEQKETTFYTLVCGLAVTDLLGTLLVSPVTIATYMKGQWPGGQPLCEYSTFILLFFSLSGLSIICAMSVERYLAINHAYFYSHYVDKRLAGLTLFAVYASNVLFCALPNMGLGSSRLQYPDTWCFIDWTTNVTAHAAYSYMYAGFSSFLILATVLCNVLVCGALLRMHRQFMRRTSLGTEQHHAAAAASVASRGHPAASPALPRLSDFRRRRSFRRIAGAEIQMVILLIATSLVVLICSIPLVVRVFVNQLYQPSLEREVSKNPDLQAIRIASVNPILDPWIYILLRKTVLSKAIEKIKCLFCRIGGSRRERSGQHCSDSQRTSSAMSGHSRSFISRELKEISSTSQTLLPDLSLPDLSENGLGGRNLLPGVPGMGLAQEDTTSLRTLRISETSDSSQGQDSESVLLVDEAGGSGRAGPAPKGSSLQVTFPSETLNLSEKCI
Chain of D(1A) dopamine receptor (Homo sapiens) (P21728 whole entry): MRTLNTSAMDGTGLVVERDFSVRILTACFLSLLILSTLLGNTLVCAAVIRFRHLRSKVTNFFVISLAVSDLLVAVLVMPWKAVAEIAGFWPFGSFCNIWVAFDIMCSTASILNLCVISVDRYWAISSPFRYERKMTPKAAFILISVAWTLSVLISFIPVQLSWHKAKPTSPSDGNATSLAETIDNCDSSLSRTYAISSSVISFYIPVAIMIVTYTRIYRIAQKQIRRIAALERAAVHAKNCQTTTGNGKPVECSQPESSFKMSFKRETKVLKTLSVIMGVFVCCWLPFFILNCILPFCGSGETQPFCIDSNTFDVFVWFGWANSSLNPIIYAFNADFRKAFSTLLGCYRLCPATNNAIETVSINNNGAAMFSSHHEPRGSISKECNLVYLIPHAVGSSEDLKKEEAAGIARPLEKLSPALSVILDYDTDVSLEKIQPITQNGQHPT
Chain of 5-hydroxytryptamine receptor 1D (Homo sapiens) (P28221 whole entry): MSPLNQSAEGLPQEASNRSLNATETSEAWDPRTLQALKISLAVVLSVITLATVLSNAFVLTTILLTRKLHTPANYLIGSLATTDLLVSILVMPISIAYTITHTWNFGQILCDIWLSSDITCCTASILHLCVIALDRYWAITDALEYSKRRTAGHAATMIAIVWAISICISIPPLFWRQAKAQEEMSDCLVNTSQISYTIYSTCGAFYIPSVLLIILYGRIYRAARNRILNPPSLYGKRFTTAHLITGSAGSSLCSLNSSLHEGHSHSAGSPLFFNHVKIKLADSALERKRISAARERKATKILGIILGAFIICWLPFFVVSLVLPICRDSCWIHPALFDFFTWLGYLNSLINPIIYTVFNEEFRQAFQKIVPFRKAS
Chain of 5-hydroxytryptamine receptor 1B (Homo sapiens) (P28222 whole entry): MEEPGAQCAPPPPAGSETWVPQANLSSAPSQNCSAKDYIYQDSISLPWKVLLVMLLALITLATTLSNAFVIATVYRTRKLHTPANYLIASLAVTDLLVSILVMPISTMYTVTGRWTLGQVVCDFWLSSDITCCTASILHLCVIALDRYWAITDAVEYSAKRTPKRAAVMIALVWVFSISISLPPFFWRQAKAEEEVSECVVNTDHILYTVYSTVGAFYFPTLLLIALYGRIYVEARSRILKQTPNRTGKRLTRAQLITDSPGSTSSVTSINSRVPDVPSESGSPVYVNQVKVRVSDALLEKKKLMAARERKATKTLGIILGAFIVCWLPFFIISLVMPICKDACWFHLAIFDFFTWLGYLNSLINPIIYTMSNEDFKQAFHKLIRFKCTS

Usually inhibition stands for the change of the read-out against control, counted positive when it falls. As a reminder, the IC50 is the midpoint of a concentration-inhibition curve. With `COc1cc(C(=O)O)ncc1C#Cc1ccccc1NS(=O)(=O)c1cccc2c(N(C)C)ccnc12` [MSC-0516], the Ki in data set [1] (read-out: Ki) was 9.59 µM; in data set [1] (read-out: pKi (converted)), 9.55 µM. Besides, the inhibition in data set [2] was 11.4%; in data set [3], -9.21%; in data set [5], 10.6%; in [6] it was 19.4%. This molecule displayed a half-maximal inhibitory concentration (IC50) in data set [4] of more than 4 µM.
In the case of `CCOc1ccc(S(=O)(=O)Nc2ccc(Cl)cc2C#Cc2cnc(C(=O)O)cc2OC)c2ncccc12` [MSC-4381], the % Inhibition of Control Specific Binding (Mean n=2) in [7] is 92.3%; in data set [8] it was -14.7%; in data set [9], -3.3%; in data set [10] it was 4.6%; in [11] it was -0.2%; in [13], -7.5%. Further, the % Inhibition of Control Specific Binding (Mean n=2) was 30.4% in data set [14]; 47.2% in data set [15]; -5.5% in [16]; 46% in data set [18]; 28.9% in data set [19]; 11.7% in data set [20]. Moreover, the % Inhibition of Control Specific Binding (Mean n=2) in [21] was determined as 35.8%. In addition, in [12], the inhibition at 120 min, 10 µM is -8.8%. For the same molecule, in [17], the inhibition is 24.2%. Also, the inhibition at 60 min, 10 µM on Na+ channel (site 2) is -4.9%.

(Values after ChEMBL document CHEMBL4800726, “Data for DCP probe MSC-4381” (2021).)
